Measured values published in patent publication US9346786B2, “Pyrrolidine compounds” (Hoffmann-La Roche Inc., priority 2009, dated 2016).

These compounds were tested against recombinant human NK3 receptor (Homo sapiens (Human), UniProt P29371) (assay: biochemical). Settings: not given.
Format: binding
Experimental: [^3H]SR142801 Competition Binding Assay
hNK3 receptor binding experiment were performed using [^3H]SR142801 (Catalog No. TRK1035, specific activity: 74.0 Ci/mmol, Amersham, GE Healthcare UK limited, Buckinghamshire, UK) and membrane isolated from HEK293 cells transiently expressing recombinant human NK3 receptor. After thawing, the membrane homogenates were centrifuged at 48,000×g for […] at 4° C., the pellets were resuspended in the 50 mM Tris-HCl, 4 mM MnCl2, 1 μM phosphoramidon, 0.1% BSA binding buffer at pH 7.4 to a final assay concentration of 5 μg protein/well. For inhibition experiments, membranes were incubated with [^3H]SR142801 at a concentration equal to KD value of radioligand and 10 concentrations of the inhibitory compound (0.0003-10 μM) (in a total reaction volume of 500 μl) for 75 min at room temperature (RT). At the end of the incubation, membranes were filtered onto unitfilter (96-well white microplate with bonded GF/C filter preincubated 1 h in 0.3% PEI+0.3% BSA, Packard BioScience, Meriden, Conn.) with a Filtermate 196 harvester (Packard BioScience) and washed 4 times with ice-cold 50 mM Tris-HCl, pH 7.4 buffer. Nonspecific binding was measured in the presence of 10 μM SB222200 for both radioligands. The radioactivity on the filter was counted (5 min) on a Packard Top-count microplate scintillation counter with quenching correction after addition of 45 μl of microscint 40 (Canberra Packard S.A., Zürich, Switzerland) and shaking for 1 h. Inhibition curves were fitted according to the Hill equation: y=100/(1+(x/IC50)^nH), where nH=slope factor using Excel-fit 4 software (Microsoft). IC50 values were derived from the inhibition curve and the affinity constant (Ki) values were calculated using the Cheng-Prussoff equation Ki=IC50/(1+[L]/KD) where [L] is the concentration of radioligand and KD is its dissociation constant at the receptor, derived from the saturation isotherm. All experiments were performed in duplicate and the mean±standard error (SEM) of the individual Ki values was calculated.

Chain of recombinant human NK3 receptor (P29371 whole entry): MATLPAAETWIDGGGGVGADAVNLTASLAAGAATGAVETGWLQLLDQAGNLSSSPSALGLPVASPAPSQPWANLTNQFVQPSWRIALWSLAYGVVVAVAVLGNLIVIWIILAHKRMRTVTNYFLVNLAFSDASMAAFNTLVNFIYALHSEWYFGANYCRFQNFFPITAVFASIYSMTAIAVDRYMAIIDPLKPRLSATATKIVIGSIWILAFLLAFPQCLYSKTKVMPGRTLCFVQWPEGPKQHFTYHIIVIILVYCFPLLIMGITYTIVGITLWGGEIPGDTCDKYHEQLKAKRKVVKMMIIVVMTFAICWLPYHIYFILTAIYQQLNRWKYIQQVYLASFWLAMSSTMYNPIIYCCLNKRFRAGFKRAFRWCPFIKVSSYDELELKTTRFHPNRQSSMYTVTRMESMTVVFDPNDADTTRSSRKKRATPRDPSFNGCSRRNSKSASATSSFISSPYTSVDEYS

Question: For CCN(C(=O)Oc1ccc(F)cc1)[C@@H]1CN(C(=O)C2CCN(C(=O)C3(C)CC3)CC2)C[C@H]1c1ccc(Cl)c(Cl)c1 (racemic) [Example 1, rac-{(3S,4R)-4-(3,4-Dichloro-phenyl)-1-[1-(1-methyl-cyclopropanecarbonyl)-piperidine-4-carbonyl]-pyrrolidin-3-yl}-ethyl-carbamic acid 4-fluoro-phenyl ester], which Ki is on record?
Answer: 1 nM

Same assay, conditions: [3H]SR142801, membranes of HEK293 cells transiently expressing recombinant human NK3 receptor; read-out: Data Ki (hNK-3 receptor affinity)

Question: Which Ki does the source give for CC(C)N(C(=O)Oc1ccc(F)cc1)[C@@H]1CN(C(=O)C2CCN(C(=O)C3(C)CC3)CC2)C[C@H]1c1ccc(Cl)c(Cl)c1 (racemic) [Example 2, rac-{(3S,4R)-4-(3,4-Dichloro-phenyl)-1-[1-(1-methyl-cyclopropanecarbonyl)-piperidine-4-carbonyl]-pyrrolidin-3-yl}-isopropyl-carbamic acid 4-fluoro-phenyl ester] here?
Answer: 46 nM

Question: For CC(C)CN(C(=O)Oc1ccc(F)cc1)[C@@H]1CN(C(=O)C2CCN(C(=O)C3(C)CC3)CC2)C[C@H]1c1ccc(Cl)c(Cl)c1 (racemic) [Example 3, rac-{(3S,4R)-4-(3,4-Dichloro-phenyl)-1-[1-(1-methyl-cyclopropanecarbonyl)-piperidine-4-carbonyl]-pyrrolidin-3-yl}-isobutyl-carbamic acid 4-fluoro-phenyl ester], which Ki is on record?
Answer: 276 nM

Question: For CC1(C(=O)N2CCC(C(=O)N3C[C@@H](N(C(=O)Oc4ccc(F)cc4)C4CC4)[C@H](c4ccc(Cl)c(Cl)c4)C3)CC2)CC1 (racemic) [Example 4, rac-{(3S,4R)-4-(3,4-Dichloro-phenyl)-1-[1-(1-methyl-cyclopropanecarbonyl)-piperidine-4-carbonyl]-pyrrolidin-3-yl}-cyclopropyl-carbamic acid 4-fluoro-phenyl ester], which Ki is on record?
Answer: 10 nM

Question: How did the Ki turn out when CCN(C(=O)Oc1ccc(F)cc1)[C@H]1CN(C(=O)C2CCN(c3ncc(C#N)cn3)CC2)C[C@@H]1c1ccc(Cl)cc1 [Example 7, {(3R,4S)-4-(4-Chloro-phenyl)-1-[1-(5-cyano-pyrimidin-2-yl)-piperidine-4-carbonyl]-pyrrolidin-3-yl}-ethyl-carbamic acid 4-fluoro-phenyl ester] was run?
Answer: 89 nM

Question: How did the Ki turn out when CCN(C(=O)Oc1ccc(F)cc1)[C@H]1CN(C(=O)C2CCN(c3ccc(C(C)=O)cn3)CC2)C[C@@H]1c1ccc(Cl)cc1 [Example 8, [(3R,4S)-1-(5′-Acetyl-3,4,5,6-tetrahydro-2H-[1,2′]bipyridinyl-4-carbonyl)-4-(4-chloro-phenyl)-pyrrolidin-3-yl]-ethyl-carbamic acid 4-fluoro-phenyl ester] was run?
Answer: 55 nM

Question: CCN(C(=O)Oc1ccc(F)cc1)[C@H]1CN(C(=O)C2CCN(c3ccc(S(C)(=O)=O)cn3)CC2)C[C@@H]1c1ccc(Cl)cc1 [Example 10, [(3R,4S)-4-(4-Chloro-phenyl)-1-(5′-methanesulfonyl-3,4,5,6-tetrahydro-2H-[1,2′]bipyridinyl-4-carbonyl)-pyrrolidin-3-yl]-ethyl-carbamic acid 4-fluoro-phenyl ester] was tested. Which Ki did it give?
Answer: 65 nM

Question: How did the Ki turn out when CCN(C(=O)Oc1ccc(F)cc1)[C@H]1CN(C(=O)C2CCN(c3ccc(C#N)nn3)CC2)C[C@@H]1c1ccc(Cl)cc1 [Example 12, {(3R,4S)-4-(4-Chloro-phenyl)-1-[1-(6-cyano-pyridazin-3-yl)-piperidine-4-carbonyl]-pyrrolidin-3-yl}-ethyl-carbamic acid 4-fluoro-phenyl ester] was run?
Answer: 23 nM

Question: How did the Ki turn out when CCN(C(=O)Oc1ccc(F)cc1)[C@@H]1CN(C(=O)C2CCN(c3ncc(C#N)cn3)CC2)C[C@H]1c1ccc(Cl)cc1 [Example 13, {(3S,4R)-4-(4-Chloro-phenyl)-1-[1-(5-cyano-pyrimidin-2-yl)-piperidine-4-carbonyl]-pyrrolidin-3-yl}-ethyl-carbamic acid 4-fluoro-phenyl ester] was run?
Answer: 8 nM

Question: Which Ki does the source give for CCN(C(=O)Oc1ccc(F)cc1)[C@@H]1CN(C(=O)C2CCN(c3ccc(C(C)=O)cn3)CC2)C[C@H]1c1ccc(Cl)cc1 [Example 14, [(3S,4R)-1-(5′-Acetyl-3,4,5,6-tetrahydro-2H-[1,2′]bipyridinyl-4-carbonyl)-4-(4-chloro-phenyl)-pyrrolidin-3-yl]-ethyl-carbamic acid 4-fluoro-phenyl ester] here?
Answer: 3 nM

Question: CCN(C(=O)Oc1ccc(F)cc1)[C@@H]1CN(C(=O)C2CCN(c3ccc(S(C)(=O)=O)cn3)CC2)C[C@H]1c1ccc(Cl)cc1 [Example 16, [(3S,4R)-4-(4-Chloro-phenyl)-1-(5′-methanesulfonyl-3,4,5,6-tetrahydro-2H-[1,2′]bipyridinyl-4-carbonyl)-pyrrolidin-3-yl]-ethyl-carbamic acid 4-fluoro-phenyl ester] was tested. Which Ki did it give?
Answer: 2 nM

Question: How did the Ki turn out when CCN(C(=O)Oc1ccc(F)cc1)[C@@H]1CN(C(=O)C2CCN(c3ccc(C#N)nn3)CC2)C[C@H]1c1ccc(Cl)cc1 [Example 18, {(3S,4R)-4-(4-Chloro-phenyl)-1-[1-(6-cyano-pyridazin-3-yl)-piperidine-4-carbonyl]-pyrrolidin-3-yl}-ethyl-carbamic acid 4-fluoro-phenyl ester] was run?
Answer: 2 nM

Question: For CCN(C(=O)Oc1ccc(F)cc1)[C@@H]1CN(C(=O)C2CCN(c3ccc(C#N)cn3)CC2)C[C@H]1c1ccc(Cl)cc1 [Example 21, [(3S,4R)-4-(4-Chloro-phenyl)-1-(5′-cyano-3,4,5,6-tetrahydro-2H-[1,2′]bipyridinyl-4-carbonyl)-pyrrolidin-3-yl]-ethyl-carbamic acid 4-fluoro-phenyl ester], which Ki is on record?
Answer: 2 nM

Same assay, conditions: read-out: Data Ki (hNK-3 receptor affinity)

Question: With CCN(C(=O)Oc1ccc(F)cc1)[C@@H]1CN(C(=O)C2CCN(C(=O)C3(C)CC3)CC2)C[C@H]1c1ccc(Cl)c(Cl)c1 [Example 5, {(3S,4R)-4-(3,4-Dichloro-phenyl)-1-[1-(1-methyl-cyclopropanecarbonyl)-piperidine-4-carbonyl]-pyrrolidin-3-yl}-ethyl-carbamic acid 4-fluoro-phenyl ester] as the compound, how does the Ki read?
Answer: 2 nM

Question: Which Ki does the source give for CCN(C(=O)Oc1ccc(F)cc1)[C@H]1CN(C(=O)C2CCN(C(=O)C3(C)CC3)CC2)C[C@@H]1c1ccc(Cl)c(Cl)c1 [Example 6, {(3R,4S)-4-(3,4-Dichloro-phenyl)-1-[1-(1-methyl-cyclopropanecarbonyl)-piperidine-4-carbonyl]-pyrrolidin-3-yl}-ethyl-carbamic acid 4-fluoro-phenyl ester] here?
Answer: 62 nM

Question: CCN(C(=O)Oc1ccc(F)cc1)[C@H]1CN(C(=O)C2CCN(c3cc(C#N)ccn3)CC2)C[C@@H]1c1ccc(Cl)cc1 [Example 9, [(3R,4S)-4-(4-Chloro-phenyl)-1-(4′-cyano-3,4,5,6-tetrahydro-2H-[1,2′]bipyridinyl-4-carbonyl)-pyrrolidin-3-yl]-ethyl-carbamic acid 4-fluoro-phenyl ester] was tested. Which Ki did it give?
Answer: 138 nM

Question: How did the Ki turn out when CCN(C(=O)Oc1ccc(F)cc1)[C@H]1CN(C(=O)C2CCN(c3cnc(C#N)cn3)CC2)C[C@@H]1c1ccc(Cl)cc1 [Example 11, {(3R,4S)-4-(4-Chloro-phenyl)-1-[1-(5-cyano-pyrazin-2-yl)-piperidine-4-carbonyl]-pyrrolidin-3-yl}-ethyl-carbamic acid 4-fluoro-phenyl ester] was run?
Answer: 36 nM

Question: CCN(C(=O)Oc1ccc(F)cc1)[C@@H]1CN(C(=O)C2CCN(c3cc(C#N)ccn3)CC2)C[C@H]1c1ccc(Cl)cc1 [Example 15, [(3S,4R)-4-(4-Chloro-phenyl)-1-(4′-cyano-3,4,5,6-tetrahydro-2H-[1,2′]bipyridinyl-4-carbonyl)-pyrrolidin-3-yl]-ethyl-carbamic acid 4-fluoro-phenyl ester] was tested. Which Ki did it give?
Answer: 8 nM

Question: With CCN(C(=O)Oc1ccc(F)cc1)[C@@H]1CN(C(=O)C2CCN(c3cnc(C#N)cn3)CC2)C[C@H]1c1ccc(Cl)cc1 [Example 17, {(3S,4R)-4-(4-Chloro-phenyl)-1-[1-(5-cyano-pyrazin-2-yl)-piperidine-4-carbonyl]-pyrrolidin-3-yl}-ethyl-carbamic acid 4-fluoro-phenyl ester] as the compound, how does the Ki read?
Answer: 2 nM

Question: Which Ki does the source give for CCN(C(=O)Oc1ccc(F)cc1)[C@H]1CN(C(=O)C2CCN(c3ccc(C(F)(F)F)cn3)CC2)C[C@@H]1c1ccc(Cl)cc1 [Example 19, [(3R,4S)-4-(4-Chloro-phenyl)-1-(5′-trifluoromethyl-3,4,5,6-tetrahydro-2H-[1,2′]bipyridinyl-4-carbonyl)-pyrrolidin-3-yl]-ethyl-carbamic acid 4-fluoro-phenyl ester] here?
Answer: 88 nM

Question: For CCN(C(=O)Oc1ccc(F)cc1)[C@@H]1CN(C(=O)C2CCN(c3ccc(C(F)(F)F)cn3)CC2)C[C@H]1c1ccc(Cl)cc1 [Example 20, [(3S,4R)-4-(4-Chloro-phenyl)-1-(5′-trifluoromethyl-3,4,5,6-tetrahydro-2H-[1,2′]bipyridinyl-4-carbonyl)-pyrrolidin-3-yl]-ethyl-carbamic acid 4-fluoro-phenyl ester], which Ki is on record?
Answer: 3 nM
